Common to all, as to test: relative viability (nuclei count vs DMSO), 5 days (fraction); higher = more cells survive
Compound in the experiment “TGX 221 + Phenformin”: CC1=CN2C(=O)C=C(N=C2C(=C1)C(C)NC3=CC=CC=C3)N4CCOCC4 [TGX 221] + N=C(N)NC(=N)NCCc1ccccc1 [Phenformin] (partner 250 µM)
Put shortly:
(§1)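 After 5 days of treatment, lung cancer cells in 1536-well plates were fixed and stained in a single step (final 0.05% Triton X-100, 1% formaldehyde, 1 ug/ml Hoechst) and their nuclei counted on 4× images. Treatment had been applied by pin tool the day after seeding as one drug alone or as a fixed anchor-drug dose with five library-drug doses (not always all listed) in √10 steps. Relative viability is the nuclei count of treated wells divided by that of vehicle wells, and values are medians of duplicate plates.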

Compound in the experiment “TGX 221 + AZD7762”: CC1=CN2C(=O)C=C(N=C2C(=C1)C(C)NC3=CC=CC=C3)N4CCOCC4 [TGX 221] + NC(=O)Nc1cc(-c2cccc(F)c2)sc1C(=O)N[C@H]1CCCNC1 [AZD7762] (partner 0.2 µM)
Put shortly: as §1

Compound in the experiment “TGX 221 + Tozasertib”: CC1=CN2C(=O)C=C(N=C2C(=C1)C(C)NC3=CC=CC=C3)N4CCOCC4 [TGX 221] + Cc1cc(Nc2cc(N3CCN(C)CC3)nc(Sc3ccc(NC(=O)C4CC4)cc3)n2)n[nH]1 [Tozasertib] (partner 0.1 µM)
The method, boiled down: as §1

Compound in experiment [1]: C1=CC=C(C(=C1)C2=CC=C(C=C2)C3=CSC4=C3C(=C(C(=O)N4)C#N)O)O + CCNC(=O)c1noc(-c2cc(C(C)C)c(O)cc2O)c1-c1ccc(CN2CCOCC2)cc1 [Luminespib] (partner 0.01 µM)
Put shortly: as §1

Consider HCC-78, for which the relative viability is 0.675 with TGX 221 + Phenformin (first compound 0.08 µM); 0.641 with TGX 221 + Phenformin (first compound 0.253 µM); 0.533 in the experiment with TGX 221 + Phenformin (first compound 0.8 µM); 0.558 with TGX 221 + Phenformin (first compound 2.53 µM); 0.604 with TGX 221 + Phenformin (first compound 8 µM); 0.483 with TGX 221 + AZD7762 (first compound 0.08 µM). Also, the relative viability worked out at 0.697 in the experiment with TGX 221 + AZD7762 (first compound 0.253 µM); 0.55 with TGX 221 + AZD7762 (first compound 0.8 µM); 0.545 in the experiment with TGX 221 + AZD7762 (first compound 2.53 µM); 0.507 with TGX 221 + AZD7762 (first compound 8 µM); 0.344 with TGX 221 + Tozasertib (first compound 0.08 µM); 0.432 with TGX 221 + Tozasertib (first compound 0.253 µM). The figures for the relative viability in the experiment with TGX 221 + Tozasertib (first compound 0.8 µM), with TGX 221 + Tozasertib (first compound 2.53 µM) and with TGX 221 + Tozasertib (first compound 8 µM) were 0.371, 0.268 and 0.347, respectively.

With NCI-H2009, the relative viability with TGX 221 + Phenformin (first compound 0.08 µM) amounted to 0.476; with TGX 221 + Phenformin (first compound 0.253 µM) it was 0.506; in the experiment with TGX 221 + Phenformin (first compound 0.8 µM) it was 0.487; with TGX 221 + Phenformin (first compound 2.53 µM) it was 0.492; with TGX 221 + Phenformin (first compound 8 µM), 0.407; in experiment [1] (first compound 0.08 µM) it was 0.962. For the same cell line, the relative viability worked out at 1.02 in experiment [1] (first compound 0.253 µM); 1.11 in experiment [1] (first compound 0.8 µM); 1.03 in experiment [1] (first compound 2.53 µM); 1.02 in experiment [1] (first compound 8 µM); 0.739 with TGX 221 + Tozasertib (first compound 0.08 µM); 0.714 in the experiment with TGX 221 + Tozasertib (first compound 0.253 µM). For the same cell line, the relative viability in the experiment with TGX 221 + Tozasertib (first compound 0.8 µM) is 0.73; with TGX 221 + Tozasertib (first compound 2.53 µM), 0.631; in the experiment with TGX 221 + Tozasertib (first compound 8 µM), 0.436.

As to COR-L 105, the relative viability with TGX 221 + Phenformin (first compound 0.08 µM) is 0.514; with TGX 221 + Phenformin (first compound 0.253 µM) it was 0.45; in the experiment with TGX 221 + Phenformin (first compound 0.8 µM), 0.569; in the experiment with TGX 221 + Phenformin (first compound 2.53 µM), 0.572; in the experiment with TGX 221 + Phenformin (first compound 8 µM), 0.412; in experiment [1] (first compound 0.08 µM), 0.881. For the same cell line, the relative viability is 0.821 in experiment [1] (first compound 0.253 µM); 0.722 in experiment [1] (first compound 0.8 µM); 0.625 in experiment [1] (first compound 2.53 µM); 0.752 in experiment [1] (first compound 8 µM); 0.412 with TGX 221 + Tozasertib (first compound 0.08 µM); 0.418 in the experiment with TGX 221 + Tozasertib (first compound 0.253 µM). Further, the relative viability stood at 0.309 with TGX 221 + Tozasertib (first compound 0.8 µM), 0.395 with TGX 221 + Tozasertib (first compound 2.53 µM) and 0.323 with TGX 221 + Tozasertib (first compound 8 µM).

Turning to NCI-H1703, the relative viability with TGX 221 + AZD7762 (first compound 0.08 µM) came to 0.129; with TGX 221 + AZD7762 (first compound 0.253 µM) it was 0.12; with TGX 221 + AZD7762 (first compound 0.8 µM) it was 0.12; with TGX 221 + AZD7762 (first compound 2.53 µM) it was 0.116; with TGX 221 + AZD7762 (first compound 8 µM), 0.146.

For the cell line SW 1573, the relative viability with TGX 221 + Phenformin (first compound 0.08 µM) is 0.325; in the experiment with TGX 221 + Phenformin (first compound 0.253 µM), 0.296; with TGX 221 + Phenformin (first compound 0.8 µM), 0.409; with TGX 221 + Phenformin (first compound 2.53 µM), 0.322; in the experiment with TGX 221 + Phenformin (first compound 8 µM), 0.369; in experiment [1] (first compound 0.08 µM), 0.192. For the same cell line, the relative viability was 0.105 in experiment [1] (first compound 0.253 µM); 0.147 in experiment [1] (first compound 0.8 µM); 0.219 in experiment [1] (first compound 2.53 µM); 0.275 in experiment [1] (first compound 8 µM); 0.175 with TGX 221 + Tozasertib (first compound 0.08 µM); 0.208 in the experiment with TGX 221 + Tozasertib (first compound 0.253 µM). Also, the relative viability with TGX 221 + Tozasertib (first compound 0.8 µM) came to 0.211; with TGX 221 + Tozasertib (first compound 2.53 µM), 0.165; with TGX 221 + Tozasertib (first compound 8 µM) it was 0.207.

For the cell line UMC-11, the relative viability with TGX 221 + Phenformin (first compound 0.08 µM) was determined as 0.322; with TGX 221 + Phenformin (first compound 0.253 µM), 0.288; in the experiment with TGX 221 + Phenformin (first compound 0.8 µM) it was 0.302; with TGX 221 + Phenformin (first compound 2.53 µM) it was 0.349; with TGX 221 + Phenformin (first compound 8 µM) it was 0.324; in experiment [1] (first compound 0.08 µM), 0.764. Moreover, the relative viability worked out at 1.04 in experiment [1] (first compound 0.253 µM); 1.03 in experiment [1] (first compound 0.8 µM); 1.06 in experiment [1] (first compound 2.53 µM); 0.839 in experiment [1] (first compound 8 µM); 0.183 with TGX 221 + Tozasertib (first compound 0.08 µM); 0.195 with TGX 221 + Tozasertib (first compound 0.253 µM). The relative viability came out at 0.204 in the experiment with TGX 221 + Tozasertib (first compound 0.8 µM), 0.203 with TGX 221 + Tozasertib (first compound 2.53 µM) and 0.194 in the experiment with TGX 221 + Tozasertib (first compound 8 µM).

For the cell line NCI-H1623, the relative viability with TGX 221 + Phenformin (first compound 0.08 µM) came out at 0.543; with TGX 221 + Phenformin (first compound 0.253 µM), 0.602; with TGX 221 + Phenformin (first compound 0.8 µM), 0.62; in the experiment with TGX 221 + Phenformin (first compound 2.53 µM), 0.566; in the experiment with TGX 221 + Phenformin (first compound 8 µM), 0.555; in experiment [1] (first compound 0.08 µM), 0.454. Also, the relative viability in experiment [1] (first compound 0.253 µM) turned out to be 0.591; in experiment [1] (first compound 0.8 µM), 0.817; in experiment [1] (first compound 2.53 µM), 0.434; in experiment [1] (first compound 8 µM), 0.419; with TGX 221 + Tozasertib (first compound 0.08 µM) it was 0.446; in the experiment with TGX 221 + Tozasertib (first compound 0.253 µM), 0.404. The figures for the relative viability with TGX 221 + Tozasertib (first compound 0.8 µM), in the experiment with TGX 221 + Tozasertib (first compound 2.53 µM) and with TGX 221 + Tozasertib (first compound 8 µM) were 0.472, 0.466 and 0.419, respectively.

For NCI-H2023, the relative viability with TGX 221 + Phenformin (first compound 0.08 µM) was 0.431; with TGX 221 + Phenformin (first compound 0.253 µM), 0.373; in the experiment with TGX 221 + Phenformin (first compound 0.8 µM), 0.397; with TGX 221 + Phenformin (first compound 2.53 µM), 0.39; in the experiment with TGX 221 + Phenformin (first compound 8 µM), 0.288; in experiment [1] (first compound 0.08 µM), 0.59. The relative viability stood at 0.752 in experiment [1] (first compound 0.253 µM); 0.767 in experiment [1] (first compound 0.8 µM); 0.956 in experiment [1] (first compound 2.53 µM); 0.643 in experiment [1] (first compound 8 µM); 0.332 with TGX 221 + Tozasertib (first compound 0.08 µM); 0.297 with TGX 221 + Tozasertib (first compound 0.253 µM). The relative viability with TGX 221 + Tozasertib (first compound 0.8 µM) stood at 0.397; with TGX 221 + Tozasertib (first compound 2.53 µM), 0.302; in the experiment with TGX 221 + Tozasertib (first compound 8 µM), 0.145.

On to COR-L23, for which the relative viability with TGX 221 + Phenformin (first compound 0.08 µM) is 0.436; with TGX 221 + Phenformin (first compound 0.253 µM) it was 0.4; with TGX 221 + Phenformin (first compound 0.8 µM), 0.445; with TGX 221 + Phenformin (first compound 2.53 µM) it was 0.485; with TGX 221 + Phenformin (first compound 8 µM), 0.457; in experiment [1] (first compound 0.08 µM), 0.524. Moreover, the relative viability was 0.745 in experiment [1] (first compound 0.253 µM); 0.714 in experiment [1] (first compound 0.8 µM); 0.773 in experiment [1] (first compound 2.53 µM); 0.52 in experiment [1] (first compound 8 µM); 0.168 with TGX 221 + Tozasertib (first compound 0.08 µM); 0.222 with TGX 221 + Tozasertib (first compound 0.253 µM). Moreover, the relative viability is 0.187 with TGX 221 + Tozasertib (first compound 0.8 µM), 0.164 with TGX 221 + Tozasertib (first compound 2.53 µM) and 0.179 with TGX 221 + Tozasertib (first compound 8 µM).

With HCC-366, the relative viability was found to be 0.617 with TGX 221 + Phenformin (first compound 0.08 µM); 0.575 with TGX 221 + Phenformin (first compound 0.253 µM); 0.642 with TGX 221 + Phenformin (first compound 0.8 µM); 0.572 in the experiment with TGX 221 + Phenformin (first compound 2.53 µM); 0.613 with TGX 221 + Phenformin (first compound 8 µM); 0.325 with TGX 221 + AZD7762 (first compound 0.08 µM). The relative viability with TGX 221 + AZD7762 (first compound 0.253 µM) was 0.202; in the experiment with TGX 221 + AZD7762 (first compound 0.8 µM), 0.242; in the experiment with TGX 221 + AZD7762 (first compound 2.53 µM), 0.0941; in the experiment with TGX 221 + AZD7762 (first compound 8 µM), 0.146; in the experiment with TGX 221 + Tozasertib (first compound 0.08 µM), 0.0834; in the experiment with TGX 221 + Tozasertib (first compound 0.253 µM), 0.113. For the same cell line, the relative viability with TGX 221 + Tozasertib (first compound 0.8 µM) turned out to be 0.283; with TGX 221 + Tozasertib (first compound 2.53 µM), 0.0517; with TGX 221 + Tozasertib (first compound 8 µM), 0.0636.

For the origin of these results see the supplement of paper PMC10307832.
